The text below walks through data of patent US11364219B2, “Methods and pharmaceutical compositions for treating microbiome dysregulations associated with circadian clock disruption” (INSERM (INSTITUT NATIONAL DE LA SANTÉ ET DE LA RECHERCHE …, priority 2016, dated 2022).

pIC50, pKi: −log10 of the molar value.

Assay [1] relates to DSS-induced colitis. As to the kind of experiment: DSS colitis model in Nlrp6-deficient mice pre-treated with apigenin. It is filed as in vivo, mouse. The text has this:
(§1) Mice and reagents. The Nlrp6-3xFlag-IRES-eGFP mouse was generated at the Institut Clinique de la Souris (Illkirch, France; further details available upon request). Age- and gender-matched Nlrp6-deficient (Nlrp6−/−) and control C57BL6/J mice had free access to a standard laboratory chow diet in a half-day light cycle exposure and temperature-controlled environment. All animal studies were approved by the local investigational review board (CEEA232009R) in an accredited establishment (N° B59-108) according to governmental guidelines N° 86/609/CEE. The experimental model of colitis was performed as previously described 10. Tissue and blood sampling was performed under LD conditions, with ZTO being the start of the light period (8 a.m.) and ZT12 the vespertinal crepuscule (8 p.m.). Apigenin (750 μg/mouse; Santa Cruz) was intraperitoneally given twice a week at ZT6 for 1 or 3 weeks period.
Immunohistochemistry, Immunofluorescence and histological analysis. Intestinal tissue was fixed in formalin, dehydrated in series of increasing concentration of alcohols and toluene before being embedded in paraffin. For immunohistochemistry, 5 μm-thick tissue sections were placed on Superfrost Plus slides (Thermo Scientific), incubated for 10 min at 60° C. and rehydrated through a series of graded alcohols and distilled water. Endogenous peroxidases were blocked by 3% hydrogen peroxide for 10 min. Antigen retrieval was performed in citrate buffer (10 mM, pH 6) by steaming sections in a microwave oven for 20 min. Tissue sections were blocked with 5% BSA/PBS for 30 min at RT and primary Ab against either Ki67 (1:100, ab15580, Abcam), M2 Ab to Flag (1:100, F3165, Sigma) or cleaved caspase3 (1:50, 9661, Cell Signalling) was directly applied and incubated one hour at room temperature (RT) or overnight at 4° C. Slides were washed 3× in PBS before applying either secondary peroxidase-conjugated goat anti-rabbit IgG (1:100, Interchim) or peroxidase conjugated goat anti-mouse IgG (1:100, Interchim) Ab two hours at RT. […]

The test system of assay [2] is colonic IECs. Briefly: Colonic IEC proliferation immunostaining (Ki67), Nlrp6-deficient mice. The following applies: three-week regimen of apigenin. It is filed as in vivo, mouse.
From the text: as §1
(§2) Immunohistochemistry, Immunofluorescence and histological analysis. Intestinal tissue was fixed in formalin, dehydrated in series of increasing concentration of alcohols and toluene before being embedded in paraffin. For immunohistochemistry, 5 μm-thick tissue sections were placed on Superfrost Plus slides (Thermo Scientific), incubated for 10 min at 60° C. and rehydrated through a series of graded alcohols and distilled water. Endogenous peroxidases were blocked by 3% hydrogen peroxide for 10 min. […]

The subject of assay [3] is gut microbiota. As to the kind of experiment: 16S rRNA gene sequencing of gut microbiota, Nlrp6-deficient mice. The format is in vivo, mouse. The settings on record: apigenin- versus vehicle-treated Nlrp6-deficient mice, ANOSIM p=0.283.
From the text: as §1, with “Tissue and blood sampling was performed under LD conditions, with ZTO being the start of the light period (8 a.m.) and ZT12 the vespertinal crepuscule (8 p.m.). Apigenin (750 μg/mouse; Santa Cruz) was intraperitoneally given twice a week at ZT6 for 1 or 3 weeks period.” left out
Microbiota analysis. […] Amplicons quantities were normalized using SEQUALPREP™ kit (Invitrogen) and pooled as a single library. […] Sequencing reads were primarily processed for quality control using the software MOTHUR. Forward and reverse reads were assembled to form contigs, reads not having perfectly matched specific primers and barcodes, having any ambiguous base and more than 8 homopolymers were removed from downstream analysis. Sequences not aligning to desired bacterial V3-V4 variable regions, suspected chimera and likely to be of non-bacterial origin were detected and removed. […] Indicator analysis was performed to identify prominent OTUs contributing to the differences between analysed groups. […] Statistical differences were determined by non-parametric Mann-Whitney Test.

Assay [4] deals with colonic IECs. Briefly: Colonic IEC proliferation and apoptosis immunostaining (Ki67, caspase-3), wild-type mice. It is filed as in vivo, mouse.
From the text: as §1, §2

For assay [5], the system named is DSS-induced colitis. As to the kind of experiment: DSS colitis model in wild-type mice pre-treated with apigenin. The format is in vivo, mouse.
From the text: as §1
Immunohistochemistry, Immunofluorescence and histological analysis. Intestinal tissue was fixed in formalin, dehydrated in series of increasing concentration of alcohols and toluene before being embedded in paraffin. For immunohistochemistry, 5 μm-thick tissue sections were placed on Superfrost Plus slides (Thermo Scientific), incubated for 10 min at 60° C. and rehydrated through a series of graded alcohols and distilled water. Endogenous peroxidases were blocked by 3% hydrogen peroxide for 10 min. Antigen retrieval was performed in citrate buffer (10 mM, pH 6) by steaming sections in a microwave oven for 20 min. Tissue sections were blocked with 5% BSA/PBS for 30 min at RT and primary Ab against either Ki67 (1:100, ab15580, Abcam), M2 Ab to Flag (1:100, F3165, Sigma) or cleaved caspase3 (1:50, 9661, Cell Signalling) was directly applied and incubated one hour at room temperature (RT) or overnight at 4° C. Slides were washed 3× in PBS before applying either secondary peroxidase-conjugated goat anti-rabbit IgG (1:100, Interchim) or peroxidase conjugated goat anti-mouse IgG (1:100, Interchim) Ab two hours at RT. Targeted antigens were visualized by using 3.3′-diaminobenzidine solution (BD Pharmingen) followed by nuclear counterstain with hematoxylin. Immunofluorescence staining procedure was done by incubation overnight at 4° C. of primary antibody against Lysozyme (A0099, Dako) at 1:1000 according to the protocol provided by Cell Signalling Technology. Secondary Ab (1:200, A11008, Life Technologies) was applied for 1 hour at RT followed by nuclear counterstain with DAPI. Tissue sections were covered by using ProLong® Gold Antifade reagent (Life Technologies). Microscopic analyses were performed by using the Zeiss Axioplan 2 imaging microscope, Axio Imager Z1 microscope, Axiovision software (all from Zeiss, Oberkochen, Germany), and ImageJ software. Staining of cryosections […] was performed to stain GFP on colonic tissue according to manufacturer's instructions (Cell Signaling Technology). Polyclonal rabbit anti-GFP Ab (1/1000, Molecular Probes) and monoclonal rat anti-integrin 6 Ab (1/100, BD Pharmingen) were used as primary Abs and incubated together on the samples for 3 hours at RT. Secondary AF488-coupled goat anti-rabbit Ab and AF594-coupled goat anti-rat Ab (1:500, Molecular Probes) applied for 1 hour at RT followed by counterstain with DAPI. Sections were covered with Mowiol.

Assay [6] deals with clock machinery genes. As to the kind of experiment: Microarray and qRT-PCR gene expression after apigenin administration. The format is in vivo, mouse.
From the text: as §1
Gene expression and microarray analysis. […] The resulting cDNA (equivalent to 5 ng of total RNA) was amplified using the SYBR Green real-time PCR kit and detected on a Stratagene Mx3005P (Agilent Technologies). […] Relative mRNA levels (2-Ct) were determined by comparing (a) the PCR cycle thresholds (Ct) for the gene of interest and Actb (ΔCt) and (b) ΔCt values for treated and control groups (ΔCt). […]

The test system of assay [7] is gut microbiota. As to the kind of experiment: 16S rRNA gene sequencing of gut microbiota, wild-type mice. The format is in vivo, mouse.
From the text: as §1
Microbiota analysis. 16S rRNA gene variable region V3 and V4 was amplified using dual indexed fusion primers, in brief primers consist of illumina linker sequence, 12 base barcode sequence and heterogeneity spacer followed by either 16S rRNA gene specific forward (319F: […]; SEQ ID NO: 1) or reverse (806R: […]; SEQ ID NO: 2) primer sequences 29. […] Amplicons quantities were normalized using SEQUALPREP™ kit (Invitrogen) and pooled as a single library. […] Sequencing reads were primarily processed for quality control using the software MOTHUR. Forward and reverse reads were assembled to form contigs, reads not having perfectly matched specific primers and barcodes, having any ambiguous base and more than 8 homopolymers were removed from downstream analysis. Sequences not aligning to desired bacterial V3-V4 variable regions, suspected chimera and likely to be of non-bacterial origin were detected and removed. […] Indicator analysis was performed to identify prominent OTUs contributing to the differences between analysed groups. Non parametric Shannon index of diversity was calculated as a measure of alpha diversity index. Statistical differences were determined by non-parametric Mann-Whitney Test.

The target of assay [8] is Csnk2. The following applies: Csnk2 inhibitors listed as examples; cited from earlier work.
Assay [9] has as its system mouse embryonic fibroblasts (MEFs). The settings on record: U0126 treatment, data not shown.
The mark [10] stands for this setting: wild-type mice, DSS, apigenin administration.

`O=c1cc(-c2ccc(O)cc2)oc2cc(O)cc(O)c12` [apigenin, 4′,5,7-trihydroxyflavone]: the “wasting disease (body weight loss)” value in assay [1] (apigenin 3 weeks before 2% DSS) was “failed to improve wasting disease”. In [1] (apigenin, DSS), the colon length result is on record as “did not alter colon length” and the “inflammation in histological analysis” value was “had no effect on inflammation”. In addition, in assay [2], the “anti-proliferative effect (Ki67)” value was “abrogated”. Further, the “global changes in the composition of the gut microbiota” value in assay [3] is given as “failed to observe global changes”. For the same compound, the “number of caspase-3 positive IECs” value in assay [4] (three-week regimen of apigenin) is “without any change”. Moreover, the “IEC proliferation (Ki67 Ab staining)” value in assay [4] (three-week regimen of apigenin (750 μg/mouse, twice a week)) is “lowered IEC proliferation”. Also, in assay [5] (mice housed in darkness for three circadian cycles during DSS exposure), the anti-inflammatory effect result is reported as “no anti-inflammatory effect”. Further, the body-weight loss entry in assay [5] (wild-type mice on LD cycles, apigenin 3 weeks (750 μg/mouse, twice a week) before 2% DSS) is on record as “less severe body-weight loss”. Further, in assay [5] (setting [10]), the colon length result is “greater colon length” and the disease-activity index entry is “lower disease-activity index”. Also, the “infiltration of inflammatory cells (H&E-stained colon sections)” value in assay [5] (wild-type mice, DSS, versus controls) is “reduced infiltration of inflammatory cells”. Also, the “colonic transcript levels of several clock machinery genes (qRT-PCR)” value in assay [6] (apigenin administration, through Nlrp6) is “significantly influenced”. Moreover, the “genes differentially expressed (microarray)” value in assay [6] (wild-type mice, Logfc of 1.5, upon apigenin administration) is recorded as 54. In [7] (apigenin treatment in wild-type mice), the “Clostridium sensu stricto and unclassified Ruminococcacceae” value is “reduction”. In addition, in [7] (apigenin-induced changes among bacterial OTUs), the “genera derived from Bacteroidetes (Alistipes, Parasatuerlla, Bacteroides)” value is “expansion”. Besides, the “gut microbiota composition versus controls” value in [7] (apigenin-treated wild-type mice, ANOSIM on Jaccard distances, p=0.015) is given as “markedly different”.
What is called pKi is −log10 of the Ki, conventionally taken in molar units. As to `O=C(O)/C=C/c1cc(Br)c(Br)c(Br)c1Br` [TBCA, (E)-3-(2,3,4,5-tetrabromophenyl)acrylic acid], the negative logarithm of the Ki (pKi) in [8] is 7.11.
Consider `O=c1c2c(O)cccc2oc2c([N+](=O)[O-])ccc(O)c12` [MNX, 1,8-dihydroxy-4-nitro-xanthen-9-one], for which the pKi in assay [8] was 6.10.
As to `O=C(O)c1c[nH]c2c(Cl)cc(Cl)c(Cl)c2c1=O` [compound 7, 5,6,8-trichloro-4-oxo-1,4-dihydroquinoline-3-carboxylic acid], the negative logarithm of the Ki (pKi) in assay [8] is 7.22.
Turning to `Cc1cc(O)c2c(c1)C(=O)c1cc(O)cc(O)c1C2=O` [emodin, 6-methyl-1,3,8-trihydroxyanthraquinone], the pKi in [8] was 5.82.
In general, pIC50 refers to the IC50 on a negative log10 scale, so that one unit is a factor of ten. For the compound `O=C(O)/C=C/c1ccc[c]([Sb](=[O])([OH])[OH])c1` [compound 10, (E)-3-(3-stibonophenyl)prop-2-enoic acid], the pIC50 in assay [8] is 6.82.
In the case of `O=C(O)c1c(Br)c(Br)c(Br)c(Br)c1-c1c2ccc(=O)cc-2oc2cc(O)ccc12` [compound 35, 2,3,4,5-tetrabromo-6-(6-hydroxy-3-oxo-3H-xanthen-9-yl)-benzoic acid], the pIC50 in [8] was 7.10.
As to `O=C1C=C2CC3(O)COc4c(ccc(O)c4O)C3=C2C=C1O` (stereo not shown) [hematein, 3,4,6a,10-tetrahydroxy-6,7-dihydroindeno[2,1-c] chromen-9-one], the negative logarithm of the IC50 (pIC50) in [8] is 6.26.
Take `N#CC(=C(/N)Sc1ccccc1N)/C(C#N)=C(\N)Sc1ccccc1N` [U0126]: in assay [9], the “growth rate of treated wild-type MEFs versus similarly treated Nlrp6-deficient MEFs” value is “comparable”.
In the case of `CC(C(=O)O)N1C(=O)c2c(I)c(I)c(I)c(I)c2C1=O` (stereo not shown) [TID46, 2-(4,5,6,7-tetraiodo-1,3-dioxo-1,3-dihydro-2Hisoindol-2-yl)propanoic acid], the pIC50 in [8] was 6.82.
In the case of `O=C(O)Cc1c2ccccc2n2c1[nH]c(=O)c1ccccc12` [IQA, 5-oxo-5,6-dihydroindolo-(1,2-a) quinazolin-7-yl acetic acid], the negative-log IC50 (pIC50) in assay [8] was 6.41.
Take `Cc1ccc2c(c1S(=O)(=O)O)SC(c1ccc3c(c1)SC(c1ccc(N(C)C)cc1)N3C)N2C` (stereo not shown) [compound 1, 2′-(4-Dimethylamino-phenyl)-3,6,3′-trimethyl-[2,6′]bibenzothiazolyl-7-sulfonic acid]: the pIC50 in [8] is 6.30.
As to `O=C(O)c1cc(Br)c(Br)c(Br)c1` [compound 26, 3,4,5 tribromobenzoic acid], the negative-log IC50 (pIC50) in assay [8] is 6.19.
Regarding `O=C(O)c1ccc2c(c1)nc(Nc1cccc(Cl)c1)c1ccncc12` [CX-4945, 5-(3-Chloro-phenylamino)-benzo[c] [2,6] naphthyridine-8-carboxylicacid], the negative-log IC50 (pIC50) in assay [8] was 8.70.
Regarding `Brc1c(Br)c(Br)c2[nH]cnc2c1Br` [TBI, 4,5,6,7-1H-tetrabromobenzimidazole], in assay [8], the negative-log Ki (pKi) was 6.52.
